For data set [1], the target named is T1, PXR (Homo sapiens, UniProt O75469).
T1 sequence (O75469 1-434): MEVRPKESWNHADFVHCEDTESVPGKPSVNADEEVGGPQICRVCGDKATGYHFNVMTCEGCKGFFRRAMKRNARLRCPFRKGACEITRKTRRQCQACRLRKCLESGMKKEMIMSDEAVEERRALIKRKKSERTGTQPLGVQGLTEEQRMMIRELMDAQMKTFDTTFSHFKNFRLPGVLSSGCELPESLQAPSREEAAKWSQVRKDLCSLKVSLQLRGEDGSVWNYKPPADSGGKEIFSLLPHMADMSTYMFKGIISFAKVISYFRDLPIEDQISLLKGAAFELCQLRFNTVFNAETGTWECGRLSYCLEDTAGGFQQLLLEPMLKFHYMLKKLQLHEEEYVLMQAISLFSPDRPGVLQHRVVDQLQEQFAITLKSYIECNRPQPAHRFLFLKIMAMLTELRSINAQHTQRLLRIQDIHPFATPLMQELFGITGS
The data set can be described thus: cell-based. To be noted: PXR antagonism: PXR inhibition (IC50, μM), antagonist mode with 10 μM rifampicin; mean ± SD, n = 3.
Procedure: The PXR activity was assessed as the PXR-dependent transcriptional activation using the construct. […] The control vector pRL-TK (Promega) constitutively expresses Renilla luciferase. […] Transient transfection experiments followed published protocols used in our laboratory and described before. , Luciferase reporter assays were conducted to evaluate interactions with PXR or CAR and their variants in HepG2, or COS-1. Cells were seeded at a density of 40,000 cells/cm^2 in 48-well plates (ThermoFisher Scientific) and maintained at 37 °C in a humidified atmosphere with 5% CO2. […] Following seeding, HepG2 cells were transfected with 150 ng/well of a luciferase reporter construct and 100 ng/well of a nuclear receptor expression vector using Lipofectamine 3000 (ThermoFisher Scientific) and with pRL-TK (30 ng/well) serving as the normalization control. After 24 h, cells were treated with test compounds for 24 h before cell lysis and subsequent firefly and Renilla luciferase activity analysis using the Dual-Glo Luciferase Assay System (Promega). […] The activities of test compounds were normalized to the respective controls to determine % activation or inhibition.

Data set [2] concerns the target T2, human CAR LBD (Homo sapiens, UniProt Q14994).
T2 construct: constructs encoding helices 3–12 and helix 1 of human CAR LBD; expressed in transfected cells; host or cells: HepG2
T2 sequence (Q14994 103-150 isoform Q14994-2 limits assumed): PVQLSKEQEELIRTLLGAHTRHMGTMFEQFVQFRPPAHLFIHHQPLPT
T2 sequence (Q14994 151-348 isoform Q14994-2 limits assumed): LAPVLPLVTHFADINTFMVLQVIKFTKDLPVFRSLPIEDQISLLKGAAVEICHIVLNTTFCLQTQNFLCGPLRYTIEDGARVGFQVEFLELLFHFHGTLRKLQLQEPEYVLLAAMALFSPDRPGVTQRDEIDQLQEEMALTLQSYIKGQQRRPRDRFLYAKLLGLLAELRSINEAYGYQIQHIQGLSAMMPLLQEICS
Briefly: CAR LBD assembly assay (CAR AA). It counts as cell-based. To be noted: na = no activity; tox = cytotoxicity in HepG2 cells. An excerpt: The CAR LBD assembly assay used constructs encoding helices 3–12 and helix 1 of human CAR LBD as described before. GL4.31[luc2P/GAL4UAS/Hygro] (pGAL4 UAS-luc) luciferase reporter vector and pRL-TK Renilla expression vector (Promega) were used in the assay in HepG2 cells transfected using Lipofectamine 3000.

Data set [3] has as its target T3, human CAR LBD (Homo sapiens, UniProt Q14994).
T3 sequence (Q14994 103-352): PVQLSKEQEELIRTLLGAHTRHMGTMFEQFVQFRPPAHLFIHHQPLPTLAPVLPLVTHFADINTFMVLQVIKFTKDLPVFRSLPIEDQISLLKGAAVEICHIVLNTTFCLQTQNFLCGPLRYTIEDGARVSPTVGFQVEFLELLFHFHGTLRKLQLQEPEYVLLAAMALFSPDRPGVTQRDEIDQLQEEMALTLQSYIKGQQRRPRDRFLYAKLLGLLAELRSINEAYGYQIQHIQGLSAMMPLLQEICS
Briefly: LanthaScreen TR-FRET CAR Coactivator assay. It counts as biochemical. To be noted: nb = no binding. As to the method:
We utilized the LanthaScreen TR-FRET CAR Coactivator Binding Assay Kit, goat (Thermo Fisher Scientific, Cat. No. PV4836), which includes GST-tagged human CAR LBD and a fluorescein-labeled PGC1α coactivator peptide. The assay was performed with slight modifications to the manufacturer’s protocol, as previously reported. […] The interaction with the PXR ligand-binding domain (LBD) was assessed using the LanthaScreen TR-FRET PXR Competitive Binding Assay (Thermo Fisher Scientific, PV4839), as previously described. This assay quantifies the ability of test compounds to displace a fluorescent PXR ligand from the receptor. Fluorescence readings were taken on a Synergy 2 Multi-Mode Microplate Reader (BioTek, Winooski, VT). The half-maximal inhibitory concentration (IC50) for PXR LBD was calculated from at least eight data points using GraphPad Prism software.
In general terms: In TR-FRET formats the signal depends on donor and acceptor labels being close together.

Data set [4] deals with T1, PXR. The data set can be described thus: PXR-responsive CYP3A4 promoter luciferase reporter assay in HepG2, inverse agonist mode (basal activity). It counts as cell-based. To be noted: tested at 10 μM, DMSO (0.1%) = 100% basal activity. On the set-up: expressed in transfected cells; host or cells: HepG2. As for the experimental part: Rhesus monkey, mouse, and rat PXR expression vectors (100 ng/well each) were also obtained from GenScript. […] Carlberg (University of Kuopio, Kuopio, Finland).
The cells were cultured in DMEM medium (Merck) supplemented with 10% fetal bovine serum.

In data set [5] the target is T4, PXR (Homo sapiens, UniProt O75469+Q96SW2).
T4 construct: differentiated hepatic HepaRG cells, which naturally express high PXR activity and expression; endogenous in cells; host or cells: differentiated HepaRG
The data set can be described thus: Western blot of PXR in differentiated HepaRG cells. Format: cell-based. To be noted: 24 h. As to the method:
The harvested HepaRG cells were lysed in RIPA lysis buffer (Cat. no 89900, Thermo Scientific) containing Halt protease inhibitor cocktail inhibitors (Thermo Scientific). Protein concentration was measured using the Pierce BCA Protein Assay Kit (Cat. no. 23225, Thermo Scientific), samples were diluted in 4 × Laemmli sample buffer (Cat. no. 1610747, BioRad) supplemented with mercaptoethanol and heated at 95 °C for 5 min. Equal amounts of protein were loaded in 4–20% Mini-PROTEAN TGX Stain-Free Protein Gels (12 well. cat. no. 4561095 or 15 well, cat. no. 4568096, Bio-Rad), electrophorised, and transferred onto Trans-Blot Turbo Midi-size PVDF Membrane (cat. no. 1704273, Bio-Rad), and blocked with EveryBlot Blocking buffer for 10 min (cat. no. 12010020, Bio-Rad). The membranes were incubated overnight at 4 °C with the following antibodies: PXR polyclonal antibody (1:500, PA5–41170, Invitrogen), RXRA polyclonal antibody (1:1000, 21218–1-AP, Proteintech), and GSPT1 polyclonal antibody (1:1000, 10763-a-AP, Proteintech), washed with TBS-T for 3 times, and followed by incubation with goat antirabbit IgG (H + L) Secondary antibody, HRP (1:200, 000, 1 h, cat. no. 31460, Invitrogen). Chemiluminescence signals were detected using SuperSignal West Femto Maximum Sensitivity Substrate (cat. no. 34096, Thermo Scientific) and visualized by the ChemiDoc MP Imaging system (Universal Hood III, #731BR02821, Bio-Rad), and the bands were quantified using β-actin (1:2000, recombinant rabbit conjugated monoclonal antibody (JF53-10), cat. no. MA5-32540, Invitrogen) as loading control with ImageJ (version 1.54g) software.
(In general: In western blotting, separated proteins are transferred to a membrane and probed.)

A short description of data set [6]: Plasma stability, mouse plasma. Format: in vitro ADME. To be noted: up to 120 min, read-out: Plasma stability, t1/2 (min), mouse. As for the experimental part:
The protocols and reagents for the plasma protein binding assay and metabolic stability testing in human and mouse liver microsomes are detailed in our previous report. Briefly, metabolic stability of compounds was assessed at a single concentration (5 μM) at t = 0, 10, 30, and at t = 45 min. The stability of compounds was tested in human and mouse microsomes (ThermoFisher Scientific). Compounds were tested in triplicate with or without NADPH wells as a negative control for cytochrome P450 metabolism. In addition to hepatic metabolism, compounds were also subjected to degradation/modification by enzymes in human (VWR International) and mouse (Biomedica, CZ) plasma for t = 0, 30, 60, and at t = 120 min. Each assay included a substrate with known activity as a positive control. Time points were analyzed by LC/MS/MS. The peak area for the parent compound is compared to the time zero sample in order to assess the amount of remaining compound.

T4 sequence (Q96SW2 whole entry, one chain of several): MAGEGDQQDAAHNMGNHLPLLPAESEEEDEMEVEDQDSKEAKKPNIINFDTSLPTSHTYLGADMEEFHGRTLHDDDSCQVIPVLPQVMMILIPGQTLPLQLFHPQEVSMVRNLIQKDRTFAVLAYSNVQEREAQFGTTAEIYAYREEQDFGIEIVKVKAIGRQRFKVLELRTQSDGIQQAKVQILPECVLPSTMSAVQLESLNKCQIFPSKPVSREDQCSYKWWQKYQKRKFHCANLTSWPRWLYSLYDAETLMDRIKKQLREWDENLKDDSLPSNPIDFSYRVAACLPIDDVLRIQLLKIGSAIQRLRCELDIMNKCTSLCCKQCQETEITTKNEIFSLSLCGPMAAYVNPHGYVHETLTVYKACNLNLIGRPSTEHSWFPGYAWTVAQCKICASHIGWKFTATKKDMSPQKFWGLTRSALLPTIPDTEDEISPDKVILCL

One may read the IC50 as the concentration that inhibits the measured activity by half. High values mean weaker potency in that assay, low ones greater potency in that assay. The EC50 is the midpoint of the concentration-response curve. In the case of `CC(c1ccc(Cl)c(C(N)=O)c1)n1cc(-c2c(-c3ccc(Cl)cc3)nc3ccccn23)nn1` (centres unmarked) [Compound 2, 2-Chloro-5-(1-(4-(2-(4-chlorophenyl)imidazo[1,2-a]pyridin-3-yl)-1H-1,2,3-triazol-1-yl)ethyl)benzamide], in data set [1], the concentration for half-maximal inhibition (IC50) turned out to be 25.4 ± 3.5 µM. The EC50 in data set [2] was 5.3 ± 0.3 µM; in data set [3], over 5 µM.
For the compound `NC(=O)c1cc(Cn2cc(-c3c(-c4ccncc4)nc4ccccn34)nn2)ccc1Cl` [Compound 3, 2-Chloro-5-((4-(2-(pyridine-4-yl)imidazo[1,2-a]pyridine-3-yl)-1H-1,2,3-triazol-1-yl)methyl)benzamide], the 50% inhibitory concentration (IC50) in data set [1] is over 100 µM. The “CAR TR-FRET (EC50, μM)” value in data set [3] is reported as “nb”.
With `NC(=O)c1cc(Cn2cc(-c3c(-c4ccc(C5CC5)cc4)nc4ccccn34)nn2)ccc1Cl` [Compound 4, 2-Chloro-5-((4-(2-(4-cyclopropylphenyl)imidazo[1,2-a]pyridin-3-yl)-1H-1,2,3-triazol-1-yl)methyl)benzamide], the 50% inhibitory concentration (IC50) in data set [1] was determined as 5.76 ± 2.6 µM. The same compound yielded a 50% effective concentration (EC50) in data set [2] of over 20 µM. For the same compound, in data set [3], the “CAR TR-FRET (EC50, μM)” value was “nb”.
In turn, `CNC(=O)c1cc(Cc2nnc(-c3c(-c4ccc(Cl)cc4)nc4ccccn34)o2)ccc1Cl` [Compound 5, 2-Chloro-5-((5-(2-(4-chlorophenyl)imidazo[1,2-a]pyridin-3-yl)-1,3,4-oxadiazol-2-yl)methyl)-N-methylbenzamide] came in with an IC50 in data set [1] of over 100 µM. In addition, the values for the half-maximal effective concentration (EC50) in data set [2] and in data set [3] were 1.02 ± 0.2 µM and 0.401 µM, respectively.
In the same order, the values of `CNC(=S)c1cc(Cc2nnc(-c3c(-c4ccc(Cl)cc4)nc4ccccn34)o2)ccc1Cl` [Compound 6, 2-Chloro-5-((5-(2-(4-chlorophenyl)imidazo[1,2-a]pyridin-3-yl)-1,3,4-oxadiazol-2-yl)methyl)-N-methylbenzothioamide] are over 100 µM, 0.99 ± 0.15 µM and 0.162 µM.
Consider `CN(C)C(=O)c1cc(Cc2nnc(-c3c(-c4ccc(Cl)cc4)nc4ccccn34)s2)ccc1Cl` [Compound 7, 2-Chloro-5-((5-(2-(4-chlorophenyl)imidazo[1,2-a]pyridin-3-yl)-1,3,4-thiadiazol-2-yl)methyl)-N,N-dimethylbenzamide], for which it took 4.94 ± 0.9 µM to reach half-maximal inhibition in data set [1] (IC50). The same compound returned a 50% effective concentration (EC50) in data set [2] of 0.5 ± 0.01 µM.
For `NC(=O)c1cc(Cn2cc(-c3c(-c4ccc(Cl)cc4)nc4cc(F)ccn34)nn2)ccc1Cl` [Compound 9, 2-Chloro-5-((4-(2-(4-chlorophenyl)-7-fluoroimidazo[1,2-a]pyridin-3-yl)-1H-1,2,3-triazol-1-yl)methyl)benzamide], the “PXR inverse agonism: decrease of basal activity in %” value in data set [4] was “(-72.03±0.3) %”; in data set [4] (listed as 9 (MI-883)) it was “–72.03 ± 0.3%”.
In data set [1], `CNC(=O)c1cc(Cn2cc(-c3c(-c4ccc(Cl)cc4)nc4c(F)cc(F)cn34)nn2)ccc1Cl` [Compound 12, 2-Chloro-5-((4-(2-(4-chlorophenyl)-6,8-difluoroimidazo[1,2-a]pyridin-3-yl)-1H-1,2,3-triazol-1-yl)methyl)-N-methylbenzamide] yielded an IC50 of 8.04 ± 2.3 µM. Moreover, in data set [3], the “CAR TR-FRET (EC50, μM)” value is “nb”.
As for `COc1ccc(OC)c(-n2nnc(S(=O)(=O)c3ccc(NC(=O)CCOCCOCCOCCOCCn4cc(CNc5cccc6c5C(=O)N(C5CCC(=O)NC5=O)C6=O)nn4)cc3)c2C)c1` (centres unmarked) [Compound 37, N-(4-((1-(2,5-dimethoxyphenyl)-5-methyl-1H-1,2,3-triazol-4-yl)sulfonyl)phenyl)-1-(4-(((2-(2,6-dioxopiperidin-3-yl)-1,3-dioxoisoindolin-4-yl)amino)methyl)-1H-1,2,3-triazol-1-yl)-3,6,9,12-tetraoxapentadecan-15-amide], the “PXR degradation (Western blot)” value in data set [5] is given as “mild effect on PXR degradation”.
With `CC(C)[N+](C)(CCOC(=O)C1c2ccccc2Oc2ccccc21)C(C)C` [Propantheline, reference compound], the half-life in data set [6] amounted to 28 ± 1 min.
“N-(4-((1-(2,5-Dimethoxyphenyl)-5-methyl-1H-1,2,3-triazol-4-yl)sulfonyl)phenyl)-3-(2-(2-(4-(((2-(2,6-dioxopiperidin-3-yl)-1,3-dioxoisoindolin-4-yl)amino)methyl)-1H-1,2,3-triazol-1-yl)ethoxy)ethoxy)propenamide [Compound 35]”: the “PXR degradation (Western blot)” value in data set [5] is given as “no effect on PXR degradation”.

For the origin of these results see publication PMC12305494, “Discovery of PXR Antagonist MI891 and PXR Degrader MI1013 and Their Roles in Hepatic Gene Regulation” (Journal of Medicinal Chemistry, 2025).
